Tested on: sGC (cGMP)
Assay: Phase I, healthy male subjects, 7 days once daily inhalation: cGMP in blood samples (C-4.1)
Assay type: in vivo, human
Conditions: for time of cGMP peak after administration: first inhalation; for mean peak cGMP: after repeated dosing for 7 days; for peak mean±SD cGMP: first profile day
Method: Healthy White male subjects, aged 18 to 45 years and with a body mass index (BMI) above/equal 18.5 and below/equal 29.9 kg/m2 were treated in a clinical pharmacological phase I study on seven days with inhaled once daily doses of 480 μg or 1000 μg or 2000 μg (2 capsules of 1000 μg) (nominal dose) of dry powder formulations of example 2 or Placebo. The subjects inhaled the drug powder from capsules (see under D-1, e.g. tables 22 and 23) inserted into a handheld inhalation device by one deep inhalative breath. The dry powder formulation of the drug is dispersed into the airstream and fine particles are transported into the deep parts of the lung where it is intended to cause a vasodilation of the blood vessels in PH patients for a substantial reduction of increased blood pressure in the central pulmonary blood vessels in PAH patients or other subtypes of PH. This effect cannot be shown in subjects with healthy lungs. In addition inhaled drug causes a dilation of the bronchial airways and thus also improves disease states of lung diseases in PH patients with pathological bronchoconstriction. This effect was measured via bodyplethysmography as reduction of Specific Airway Resistance in healthy subjects. After the deep inhalative breath the subjects hold breath for 2 seconds, so that the dry powder drug condenses from the airstream onto the surface of the deeper lung areas where it is deposited close to its site of intended pharmacological action. The drug dissolutes over the day and equilibrates the lung via lining fluid.
Drug activity in healthy men was controlled in the healthy subjects by analysing blood samples for cGMP, the immediate product of sGC pharmacological activation prior after the first and after the last drug inhalation of the 7 days treatment in comparison to measurements on the pretreatment day for all doses.
This prolonged activity in comparison to systemic drug concentration is caused by the mode of administration as inhaled dry powder, that deposits drug in the deeper part of the lung leading to an active drug concentration over 24 h after a once daily inhalation.
At 10 days after the first treatment, mean cGMP concentrations had returned close to the concentration observed at the pre-dosing day.

O=C(O)c1ccc(CCN(CCc2ccccc2OCc2ccc(-c3ccc(C(F)(F)F)cc3)cc2Cl)[C@H]2CCCc3nc(C(=O)O)ccc32)cc1 [example 2, (5S)-{[2-(4-Carboxyphenyl)ethyl][2-(2-{[3-chloro-4′-(trifluoromethyl)biphenyl-4-yl]methoxy}phenyl)-ethyl]amino}-5,6,7,8-tetrahydroquinoline-2-carboxylic acid]
cGMP, mean ± SD (1000 μg, 5 D 00 H 00 M (trough)): 8.50 ± 2.13 nmol/L | cGMP, mean ± SD (1000 μg, 6 D 00 H 00 M (trough)): 9.23 ± 2.12 nmol/L | cGMP, mean ± SD (1000 μg, 7 D 00 H 00 M (trough)): 9.66 ± 2.30 nmol/L | cGMP, mean ± SD (1000 μg, 7 D 02 H 00 M): 11.84 ± 2.18 nmol/L | cGMP, mean ± SD (1000 μg, 7 D 04 H 00 M): 15.76 ± 2.29 nmol/L | cGMP, mean ± SD (1000 μg, 7 D 06 H 00 M): 16.70 ± 2.96 nmol/L | cGMP, mean ± SD (1000 μg, 7 D 08 H 00 M): 15.91 ± 3.86 nmol/L | cGMP, mean ± SD (1000 μg, 7 D 12 H 00 M): 14.10 ± 4.55 nmol/L | cGMP, mean ± SD (1000 μg, 7 D 15 H 00 M): 12.91 ± 3.72 nmol/L | cGMP, mean ± SD (1000 μg, 8 D 00 H 00 M): 9.38 ± 3.11 nmol/L | cGMP, mean ± SD (1000 μg, 8 D 12 H 00 M): 7.21 ± 2.24 nmol/L | cGMP, mean ± SD (1000 μg, 9 D 00 H 00 M): 6.29 ± 1.86 nmol/L | cGMP, mean ± SD (1000 μg, 9 D 12 H 00 M): 5.93 ± 1.39 nmol/L | cGMP, mean ± SD (1000 μg, 10 D 00 H 00 M): 6.33 ± 2.30 nmol/L | cGMP, mean ± SD (1000 μg, −0 D 09 H 00 M (baseline)): 4.18 ± 0.82 nmol/L | cyclic guanosine monophosphate changes from baseline (1000 μg, −0 D 09 H 00 M (pretreatment day)): -0.84 ± 2.04 nmol/L | cGMP, mean ± SD (1000 μg, −0 D 12 H 00 M (baseline)): 4.26 ± 0.99 nmol/L | cyclic guanosine monophosphate changes from baseline (1000 μg, −0 D 12 H 00 M (pretreatment day)): -0.77 ± 1.72 nmol/L | cGMP, mean ± SD (1000 μg, −0 D 16 H 00 M (baseline)): 4.59 ± 1.06 nmol/L | cyclic guanosine monophosphate changes from baseline (1000 μg, −0 D 16 H 00 M (pretreatment day)): -0.43 ± 1.49 nmol/L | cGMP, mean ± SD (1000 μg, −0 D 18 H 00 M (baseline)): 4.16 ± 0.92 nmol/L | cyclic guanosine monophosphate changes from baseline (1000 μg, −0 D 18 H 00 M (pretreatment day)): -0.87 ± 1.44 nmol/L | cGMP, mean ± SD (1000 μg, −0 D 20 H 00 M (baseline)): 4.78 ± 1.37 nmol/L | cyclic guanosine monophosphate changes from baseline (1000 μg, −0 D 20 H 00 M (pretreatment day)): -0.24 ± 1.75 nmol/L | cGMP, mean ± SD (1000 μg, −0 D 22 H 00 M (baseline)): 5.10 ± 1.46 nmol/L | cyclic guanosine monophosphate changes from baseline (1000 μg, −0 D 22 H 00 M (pretreatment day)): 0.08 ± 1.41 nmol/L | cGMP, mean ± SD (1000 μg, −1 D 02 H 00 M (baseline)): 5.02 ± 1.59 nmol/L | time of cGMP peak after administration (2000 μg dose): 8 h | cyclic guanosine monophosphate changes from baseline (2000 μg once daily inhaled, 0 D 02 H 00 M): 4.78 ± 1.35 nmol/L | cyclic guanosine monophosphate changes from baseline (2000 μg once daily inhaled, 0 D 04 H 00 M): 9.18 ± 2.50 nmol/L | cyclic guanosine monophosphate changes from baseline (2000 μg once daily inhaled, 0 D 06 H 00 M): 11.04 ± 3.21 nmol/L | cyclic guanosine monophosphate changes from baseline (2000 μg once daily inhaled, 0 D 08 H 00 M): 11.69 ± 2.78 nmol/L | cyclic guanosine monophosphate changes from baseline (2000 μg once daily inhaled, 0 D 12 H 00 M): 8.56 ± 2.19 nmol/L | cyclic guanosine monophosphate changes from baseline (2000 μg once daily inhaled, 0 D 15 H 00 M): 7.54 ± 2.32 nmol/L | cyclic guanosine monophosphate changes from baseline (2000 μg once daily inhaled, 1 D 00 H 00 M): 3.48 ± 0.90 nmol/L | cyclic guanosine monophosphate changes from baseline (2000 μg once daily inhaled, 2 D 00 H 00 M): 1.57 ± 0.86 nmol/L | cyclic guanosine monophosphate changes from baseline (2000 μg once daily inhaled, 3 D 00 H 00 M): 5.17 ± 1.51 nmol/L | cyclic guanosine monophosphate changes from baseline (2000 μg once daily inhaled, 4 D 00 H 00 M): 9.33 ± 2.55 nmol/L | cyclic guanosine monophosphate changes from baseline (2000 μg once daily inhaled, 5 D 00 H 00 M): 11.10 ± 3.49 nmol/L | cyclic guanosine monophosphate changes from baseline (2000 μg once daily inhaled, 6 D 00 H 00 M): 11.71 ± 2.66 nmol/L | cyclic guanosine monophosphate changes from baseline (2000 μg once daily inhaled, 7 D 00 H 00 M): 11.36 ± 3.37 nmol/L | cyclic guanosine monophosphate changes from baseline (2000 μg once daily inhaled, 7 D 02 H 00 M): 17.33 ± 4.18 nmol/L | cyclic guanosine monophosphate changes from baseline (2000 μg once daily inhaled, 7 D 04 H 00 M): 22.23 ± 4.75 nmol/L | cyclic guanosine monophosphate changes from baseline (2000 μg once daily inhaled, 7 D 06 H 00 M): 27.39 ± 6.93 nmol/L | cyclic guanosine monophosphate changes from baseline (2000 μg once daily inhaled, 7 D 08 H 00 M): 27.83 ± 7.77 nmol/L | cyclic guanosine monophosphate changes from baseline (2000 μg once daily inhaled, 7 D 12 H 00 M): 23.33 ± 5.53 nmol/L | cyclic guanosine monophosphate changes from baseline (2000 μg once daily inhaled, 7 D 15 H 00 M): 19.08 ± 4.95 nmol/L | cyclic guanosine monophosphate changes from baseline (2000 μg once daily inhaled, 8 D 00 H 00 M): 11.17 ± 3.69 nmol/L | cyclic guanosine monophosphate changes from baseline (2000 μg once daily inhaled, 8 D 12 H 00 M): 8.02 ± 2.45 nmol/L | cyclic guanosine monophosphate changes from baseline (2000 μg once daily inhaled, 9 D 00 H 00 M): 5.64 ± 1.36 nmol/L | cyclic guanosine monophosphate changes from baseline (2000 μg once daily inhaled, 9 D 12 H 00 M): 4.57 ± 2.15 nmol/L | cyclic guanosine monophosphate changes from baseline (2000 μg once daily inhaled, 10 D 00 H 00 M): 3.26 ± 1.07 nmol/L | cyclic guanosine monophosphate changes from baseline (2000 μg, 0 D 00 H 00 M): 0.68 ± 1.14 nmol/L | cGMP, mean ± SD (2000 μg, 0 D 00 H 00 M (baseline)): 4.83 ± 2.52 nmol/L | cGMP, mean ± SD (2000 μg, 0 D 02 H 00 M): 9.61 ± 3.65 nmol/L | cGMP, mean ± SD (2000 μg, 0 D 04 H 00 M): 14.01 ± 4.51 nmol/L | cGMP, mean ± SD (2000 μg, 0 D 06 H 00 M): 15.88 ± 5.09 nmol/L | cGMP, mean ± SD (2000 μg, 0 D 08 H 00 M): 16.52 ± 4.24 nmol/L | cGMP, mean ± SD (2000 μg, 0 D 12 H 00 M): 13.39 ± 4.01 nmol/L | cGMP, mean ± SD (2000 μg, 0 D 15 H 00 M): 12.38 ± 4.17 nmol/L | cGMP, mean ± SD (2000 μg, 1 D 00 H 00 M): 8.31 ± 2.88 nmol/L | cGMP, mean ± SD (2000 μg, 2 D 00 H 00 M): 6.40 ± 2.09 nmol/L | cGMP, mean ± SD (2000 μg, 3 D 00 H 00 M (trough)): 10.00 ± 3.51 nmol/L | cGMP, mean ± SD (2000 μg, 4 D 00 H 00 M (trough)): 14.17 ± 4.36 nmol/L | cGMP, mean ± SD (2000 μg, 5 D 00 H 00 M (trough)): 15.93 ± 5.52 nmol/L | cGMP, mean ± SD (2000 μg, 6 D 00 H 00 M (trough)): 16.54 ± 4.60 nmol/L | cGMP, mean ± SD (2000 μg, 7 D 00 H 00 M (trough)): 16.19 ± 5.02 nmol/L | cGMP, mean ± SD (2000 μg, 7 D 02 H 00 M): 22.17 ± 6.07 nmol/L | cGMP, mean ± SD (2000 μg, 7 D 04 H 00 M): 27.07 ± 7.01 nmol/L | cGMP, mean ± SD (2000 μg, 7 D 06 H 00 M): 32.22 ± 8.83 nmol/L | cGMP, mean ± SD (2000 μg, 7 D 08 H 00 M): 32.67 ± 9.48 nmol/L | cGMP, mean ± SD (2000 μg, 7 D 12 H 00 M): 28.17 ± 7.50 nmol/L | cGMP, mean ± SD (2000 μg, 7 D 15 H 00 M): 23.91 ± 6.59 nmol/L | cGMP, mean ± SD (2000 μg, 8 D 00 H 00 M): 16.00 ± 5.77 nmol/L | cGMP, mean ± SD (2000 μg, 8 D 12 H 00 M): 12.86 ± 3.96 nmol/L | cGMP, mean ± SD (2000 μg, 9 D 00 H 00 M): 10.48 ± 3.49 nmol/L | cGMP, mean ± SD (2000 μg, 9 D 12 H 00 M): 9.40 ± 3.10 nmol/L | cGMP, mean ± SD (2000 μg, 10 D 00 H 00 M): 8.09 ± 2.81 nmol/L | cGMP, mean ± SD (2000 μg, −0 D 09 H 00 M (baseline)): 3.98 ± 1.91 nmol/L | cyclic guanosine monophosphate changes from baseline (2000 μg, −0 D 09 H 00 M (pretreatment day)): -0.18 ± 0.90 nmol/L | cGMP, mean ± SD (2000 μg, −0 D 12 H 00 M (baseline)): 4.43 ± 2.24 nmol/L | cyclic guanosine monophosphate changes from baseline (2000 μg, −0 D 12 H 00 M (pretreatment day)): 0.28 ± 0.97 nmol/L | cGMP, mean ± SD (2000 μg, −0 D 16 H 00 M (baseline)): 4.44 ± 2.15 nmol/L | cyclic guanosine monophosphate changes from baseline (2000 μg, −0 D 16 H 00 M (pretreatment day)): 0.29 ± 1.17 nmol/L | cGMP, mean ± SD (2000 μg, −0 D 18 H 00 M (baseline)): 4.32 ± 1.33 nmol/L | cyclic guanosine monophosphate changes from baseline (2000 μg, −0 D 18 H 00 M (pretreatment day)): 0.17 ± 0.78 nmol/L | cGMP, mean ± SD (2000 μg, −0 D 20 H 00 M (baseline)): 4.63 ± 1.86 nmol/L | cyclic guanosine monophosphate changes from baseline (2000 μg, −0 D 20 H 00 M (pretreatment day)): 0.48 ± 0.71 nmol/L | cGMP, mean ± SD (2000 μg, −0 D 22 H 00 M (baseline)): 4.81 ± 2.22 nmol/L | cyclic guanosine monophosphate changes from baseline (2000 μg, −0 D 22 H 00 M (pretreatment day)): 0.66 ± 0.79 nmol/L | cGMP, mean ± SD (2000 μg, −1 D 02 H 00 M (baseline)): 4.16 ± 1.70 nmol/L | start of cGMP increase after first inhalation (480, 1000, 2000 μg): approximately 2 h | time of cGMP peak after administration (480 and 1000 μg dose): 6 h | mean peak cGMP (480 μg): 11.96 ± 2.80 nmol/L | mean peak cGMP (1000 μg): 16.70 ± 2.96 nmol/L | mean peak cGMP (2000 μg): 32.67 ± 9.48 nmol/L | peak mean±SD cGMP (480 μg): 8.84 ± 1.35 nmol/L | peak mean±SD cGMP (1000 μg): 11.69 ± 1.86 nmol/L | peak mean±SD cGMP (2000 μg): 16.52 ± 4.24 nmol/L
